Data taken from ChEMBL document CHEMBL1201862, “PubChem BioAssay data set” (2004).
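1) Cells in 96-well plates. 2) Compound, 48 h, 5 concentrations. 3) Linear interpolation between surrounding doses. 4) Unreached endpoint = highest concentration. GI50 = concentration required for 50% inhibition of growth.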 Calls of active or inactive are those of the source. Rule as the data show it: active = GI50 up to about 1.1 µM and inactive = higher.

What was measured:
Test in all cases: DTP human tumour cell line panel, 48 h
SR = tested on: SR
HCC 2998 = tested on: HCC 2998
HT-29 = tested on: HT-29
NCI-H23 = tested on: NCI-H23
SK-MEL-5 = tested on: SK-MEL-5
U-251 = tested on: U-251
NCI-H226 = tested on: NCI-H226
OVCAR-3 = tested on: OVCAR-3
HCT-15 = tested on: HCT-15
Malme-3M = tested on: Malme-3M
MOLT-4 = tested on: MOLT-4
HOP-62 = tested on: HOP-62
CAKI-1 = tested on: CAKI-1
SNB-75 = tested on: SNB-75
SK-MEL-28 = tested on: SK-MEL-28
SK-OV-3 = tested on: SK-OV-3
UACC-257 = tested on: UACC-257
786-0 = tested on: 786-0
SF-539 = tested on: SF-539

SMILES	GI50 (SR)	GI50 (HCC 2998)	GI50 (HT-29)	GI50 (NCI-H23)	GI50 (SK-MEL-5)	GI50 (U-251)	GI50 (NCI-H226)	GI50 (OVCAR-3)	GI50 (HCT-15)	GI50 (Malme-3M)	GI50 (MOLT-4)	GI50 (HOP-62)	GI50 (CAKI-1)	GI50 (SNB-75)	GI50 (SK-MEL-28)	GI50 (SK-OV-3)	GI50 (UACC-257)	GI50 (786-0)	GI50 (SF-539)
CN1C(=O)CN2C(Cl)(Cl)C2(c2ccccc2F)c2cc([N+](=O)[O-])ccc21 (stereo unspecified)	33 µM (inactive)	22.7 µM (inactive)	39.1 µM (inactive)	76 µM (inactive)	26.8 µM (inactive)	57.1 µM (inactive)	16.2 µM (inactive)	> 100 µM (inactive)	41.4 µM	18.4 µM (inactive)	17.3 µM (inactive)	> 100 µM (inactive)	> 100 µM (inactive)	17.5 µM (inactive)	> 100 µM (inactive)	> 10 µM (inactive)	64.4 µM (inactive)	–	–
O=[N+]([O-])c1ccc(C2SCc3nc4ccccc4n32)cc1 (stereo unspecified)	53.6 µM (inactive)	–	> 100 µM (inactive)	26.7 µM (inactive)	17.4 µM (inactive)	93.8 µM (inactive)	29.2 µM (inactive)	–	–	40.1 µM (inactive)	28.1 µM (inactive)	> 100 µM (inactive)	61.4 µM (inactive)	–	> 100 µM (inactive)	92.9 µM (inactive)	42.4 µM (inactive)	> 100 µM (inactive)	> 100 µM (inactive)
CC(=O)N/C(=C\c1ccccc1/C=C(\NC(C)=O)c1nc2cc(C)c(C)cc2[nH]1)c1nc2cc(C)c(C)cc2[nH]1	0.689 µM (active)	–	34.8 µM (inactive)	8.17 µM (inactive)	17.1 µM (inactive)	6.59 µM (inactive)	25.8 µM (inactive)	3.73 µM (inactive)	> 10 µM	21.7 µM (inactive)	20.3 µM (inactive)	14.2 µM (inactive)	11.5 µM (inactive)	13.7 µM (inactive)	7.43 µM (inactive)	34.4 µM (inactive)	–	18.7 µM (inactive)	19.7 µM (inactive)
CC(=O)NCCc1c(-c2[nH]c3ccccc3c2CCNC(C)=O)[nH]c2ccccc12	> 100 µM (inactive)	> 100 µM (inactive)	> 100 µM (inactive)	> 100 µM (inactive)	> 100 µM (inactive)	> 100 µM (inactive)	> 100 µM (inactive)	> 100 µM (inactive)	> 100 µM	–	> 100 µM (inactive)	85.7 µM (inactive)	> 100 µM (inactive)	47.6 µM (inactive)	> 100 µM (inactive)	51.2 µM (inactive)	> 100 µM (inactive)	35.7 µM (inactive)	74.5 µM (inactive)
O=NN(CCCl)C(=O)N[C@H]1CC[C@@H](CC(=O)O)CC1	–	> 100 µM (inactive)	> 100 µM (inactive)	> 100 µM (inactive)	> 100 µM (inactive)	74 µM (inactive)	> 100 µM (inactive)	> 100 µM (inactive)	> 100 µM	> 100 µM (inactive)	44 µM (inactive)	> 100 µM (inactive)	> 100 µM (inactive)	> 81.1 µM (inactive)	> 100 µM (inactive)	> 100 µM (inactive)	> 100 µM (inactive)	–	45.7 µM (inactive)
O[C@@H]1C[C@H]2N3CC[C@@]2(c2cc4c(cc2C3)OCO4)[C@H]2O[C@@H]12	–	> 100 µM (inactive)	> 100 µM (inactive)	> 100 µM (inactive)	< 0.01 µM (active)	> 100 µM (inactive)	0.0271 µM (active)	> 100 µM (inactive)	> 100 µM	> 100 µM (inactive)	> 100 µM (inactive)	> 100 µM (inactive)	> 100 µM (inactive)	> 100 µM (inactive)	> 100 µM (inactive)	> 100 µM (inactive)	90.4 µM (inactive)	> 100 µM (inactive)	0.0178 µM (active)
c1ccc(/N=c2\snc3scc(-c4ccccc4)n23)cc1	–	44.1 µM (inactive)	50.5 µM (inactive)	36.6 µM (inactive)	24.5 µM (inactive)	26.8 µM (inactive)	26.7 µM (inactive)	22.8 µM (inactive)	41.6 µM	31.6 µM (inactive)	29.3 µM (inactive)	30.5 µM (inactive)	49.5 µM (inactive)	> 100 µM (inactive)	41 µM (inactive)	84.1 µM (inactive)	32.5 µM (inactive)	50.5 µM (inactive)	37.4 µM (inactive)
CCNC1=Nc2ccccc2-n2c(nn3nc4ccccc4c23)N1CC	34.8 µM (inactive)	–	82.6 µM (inactive)	> 100 µM (inactive)	> 100 µM (inactive)	> 100 µM (inactive)	> 100 µM (inactive)	–	> 100 µM	–	30.2 µM (inactive)	> 100 µM (inactive)	–	> 100 µM (inactive)	94.2 µM (inactive)	–	> 100 µM (inactive)	> 100 µM (inactive)	> 100 µM (inactive)
O=C(O)CNS(=O)(=O)c1ccc(NC(=O)c2ccc([N+](=O)[O-])cc2)cc1	–	> 100 µM (inactive)	> 100 µM (inactive)	> 100 µM (inactive)	> 100 µM (inactive)	> 100 µM (inactive)	> 100 µM (inactive)	> 100 µM (inactive)	> 100 µM	> 100 µM (inactive)	> 100 µM (inactive)	–	> 100 µM (inactive)	> 100 µM (inactive)	> 100 µM (inactive)	> 100 µM (inactive)	> 100 µM (inactive)	> 100 µM (inactive)	> 100 µM (inactive)
C[C@@H]1CC2(C[C@@H](C)C3[C@@H](CC4(C)CCCC5C6=CC(O)(CC[C@]34C)OC6=CC(=O)OC5(C)C)O2)OC1=O (stereo partly specified)	> 100 µM (inactive)	> 100 µM (inactive)	–	> 100 µM (inactive)	> 100 µM (inactive)	> 100 µM (inactive)	> 100 µM (inactive)	> 100 µM (inactive)	> 100 µM	> 100 µM (inactive)	> 100 µM (inactive)	–	–	96.2 µM (inactive)	> 100 µM (inactive)	> 100 µM (inactive)	–	> 100 µM (inactive)	> 100 µM (inactive)
COc1cc(C2c3cc4c(cc3[C@@H](Nc3ccc(C(=O)O)cc3)C3COC(=O)[C@H]23)OCO4)cc(OC)c1O (stereo partly specified)	–	28.4 µM (inactive)	22 µM (inactive)	10.6 µM (inactive)	12.1 µM (inactive)	–	3.72 µM (inactive)	20 µM (inactive)	13.4 µM	13.7 µM (inactive)	0.721 µM (active)	8.15 µM (inactive)	4.98 µM (inactive)	13.2 µM (inactive)	27.5 µM (inactive)	–	27.2 µM (inactive)	–	6.56 µM (inactive)
COC[C@@H]1Cc2cc(OC)c3c(c2[C@H](c2ccc(OC)c(OC)c2)[C@H]1COC)OCO3 [HYPOPHYLLANTHIN]	> 100 µM (inactive)	> 100 µM (inactive)	> 100 µM (inactive)	> 100 µM (inactive)	> 10 µM (inactive)	> 100 µM (inactive)	–	> 100 µM (inactive)	> 100 µM	78.9 µM (inactive)	> 100 µM (inactive)	–	–	28.1 µM (inactive)	> 100 µM (inactive)	> 100 µM (inactive)	> 100 µM (inactive)	–	38.8 µM (inactive)
